Assay results as given in publication PMC8369502, “High-Throughput Drug Screening System Based on Human Induced Pluripotent Stem Cell-Derived Atrial Myocytes ∼ A Novel Platform to Detect Cardiac Toxicity for Atrial Arrhythmias” (Frontiers in Pharmacology, 2021).
Where “and” joins values, the source holds several entries; their conditions need not be identical. Identical values can stand only once. Entries after “also recorded” stand apart in the source; their conditions may differ. Like-named read-outs stand apart in the source and are kept apart here.

What was measured:
[1] = tested on: CT (control hiPS-CMs without RA, ventricular-like); assay: High-throughput membrane potential recording (FluoVolt, FDSS/μCell) in CT; format: cell-based, human; conditions: for Falling Slope / PWD30cF / PWD80cF / Rising Slope: % change from value before compound addition, 10 min after addition (Bay K 8644: 3 min)
Description: (§1) Using a high-throughput screening system (FDSS/μCell), we assessed the drug toxicity of several experimental drugs on hiPS-derived atrial myocytes as well as control hiPS-derived cardiomyocytes. Membrane potential was used as one of the parameters during the assessment.
(§2) After purification, hiPS-derived cardiomyocytes were plated in 96-well plates for downstream drug response assessment using FluoVolt™ Membrane Potential Kit. […] The comparison of variance in the response of drug administration in CT and AM was represented by the percentage of changes based on their baseline values respectively.
(§3) FluoVolt™ Membrane Potential Kit (ThermoFisher […], F10488, Massachusetts, United States) was used to measure membrane potentials. The basic procedure was performed in accordance with the manufacturer’s instructions. […] MP were recorded at excitation and emission stages at wavelengths of 470 and 540 nm, respectively. […] Stock solutions of the test compounds were prepared in 100% DMSO, and serially diluted 1/40 into compound plates for testing (0.5% DMSO was the maximum concentration in all wells). The compounds were automatically pipetted from the compound plate, and 12 μL was loaded in the wells already containing the cells with 48 μL of media. Recording data were analyzed using Waveform Analysis of Cardiomyocyte Software (Ver.1.2.1J, Hamamatsu Photonics K.K.). Data values for a well were averaged from waveforms that arose during 30 s. The beat rate (BR; beats per minute), waveform amplitude (AMP), and duration at 30, 50, and 80% of decay (PWD30, PWD 50, and PWD 80, respectively) were used as evaluation parameters. PWDs were corrected using the Fridericia formula. PWD30-80 was calculated as the difference between PWD80 and PWD30. Each parameter was calculated as percentage change (%) from the value before test compound addition.

[2] = tested on: AM (RA-treated hiPS-CMs, atrial-like); assay: High-throughput membrane potential recording (FluoVolt, FDSS/μCell) in AM; format: cell-based, human; conditions: for cessation of beating (cases): count of cases; for rising slope of membrane potential (in words): concentration range as stated in the source
Description: as §1, §2, §3

[3] = tested on: cardiac Na+ channel (Nav1.5); conditions: cited from earlier work
[4] = tested on: ventricular myocytes of guinea pigs; parameters: method as in Delaunois et al., 2015; conditions: 75 μM; ref Delaunois et al., 2015; cited from earlier work
[5] = tested on: human atrial myocytes; parameters: method as in Lagrutta et al., 2006; conditions: ref Lagrutta et al., 2006; cited from earlier work
[6] = tested on: ventricular function and porcine ventricular myocytes; parameters: method as in Knobloch et al., 2002; conditions: ref Knobloch et al., 2002; cited from earlier work
[7] = tested on: atrial refractory period; parameters: method as in Knobloch et al., 2002; conditions: ref Knobloch et al., 2002; cited from earlier work
[8] = tested on: Cav1.2 current; parameters: method as in Kramer et al., (2013), Harmer et al., (2011); conditions: ref Kramer et al., (2013), Harmer et al., (2011); cited from earlier work
[9] = concentration range as stated in the source
[10] = % change from value before compound addition, 10 min after addition (Bay K 8644: 3 min)

concentration at which cessation of beating was elicited [1]	Compound	amplitude of membrane potential (in words) [1]	membrane potential duration (in words) [1]	incidence of arrhythmia-like waveforms: arrest ([1]; 30 μM)	incidence of arrhythmia-like waveforms: arrest ([1]; 100 μM)	Falling Slope [1]	PWD30cF [1]	PWD80cF [1]	Rising Slope [1]	falling slope of membrane potential (in words) [1, 9]	rising slope of membrane potential (in words) [1, 9]	incidence of arrhythmia-like waveforms: arrest ([2]; 30 μM)	incidence of arrhythmia-like waveforms: arrest ([2]; 100 μM)	Rising Slope [2, 10]	rising slope of membrane potential (in words) [2]	PWD30cF (in words) [2]	PWD50cF (in words) [2]	PWD30cF [2, 10]	incidence of arrhythmia-like waveforms: arrest ([2]; 10 μM)	further results
above 30 μM	NC(=O)N1c2ccccc2C=Cc2ccccc21 [Carbamazepine]	decrease	shortened	8%	92%	↑	↓	↓	↓	increase	decrease	50%	83%	↓	decrease	–	–	–	–	concentration at which irregular beating or EAD appeared [1]: above 30 μM; incidence of arrhythmia-like waveforms: irregular beat ([1]; 30 μM): 25%; incidence of arrhythmia-like waveforms: irregular beat ([1]; 100 μM): 8%; cessation of beating (cases) ([1]; 100 μM, count of cases): 11 of 12; beating rate (in words) [1, 9]: decrease; other parameters of membrane potential (in words) [2]: no obvious change was observed; cessation of beating (cases) ([2]; 30 μM): half the cases; cessation of beating (cases) ([2]; 100 μM): 5 of 6; IC50 ([3]; ref Harmer et al., 2011, read-out: IC50 cardiac Na+ channel (Nav1.5)): 152 µM; APD50 [4]: shortening; APD90 [4]: shortening; Vmax [4]: decrease
–	CC(C)[C@@H]1CC[C@@H](C)C[C@@H]1P(=O)(c1ccccc1)c1ccccc1 [DPO-1]	–	–	–	–	–	–	–	–	–	–	–	–	–	–	dose-dependent increases; also recorded: prolongation	dose-dependent increases; also recorded: prolongation	↑	–	action potentials in human atrial myocytes [5]: prolongation of action potentials
–	O=C(NCc1ccccc1-c1ccccc1C(=O)NCCc1ccccn1)OCc1ccccc1 [S9947]	decrease	–	–	–	↑	↓	↓	↓	–	–	–	–	–	–	prolongation	prolongation	↑	100%	incidence of arrhythmia-like waveforms: arrest ([1]; 10 μM): 50%; cessation of beating / arrest (cases) ([1]; 10 μM, count of cases): half; membrane potential duration (in words) [2]: dose-dependent increase; cessation of beating / arrest (cases) ([2]; 10 μM, count of wells): All; PWD80cF [2, 10]: ↑; ventricular function and porcine ventricular myocytes [6]: did not affect; atrial refractory period [7]: prolonged
higher than 30 μM	O=C1NC(=O)C(c2ccccc2)(c2ccccc2)N1 [Phenytoin]	–	slight shortening	83%	100%	↑	–	–	↓	increase	dose-dependent decrease	67%	100%	↓	dose-dependent decrease	–	–	–	50%	IC50 ([3]; ref Kramer et al., (2013), Harmer et al., (2011), read-out: IC50 cardiac Nav1.5 current): 72.4 µM and 121 µM; IC50 [8]: 21.9 µM
